For data set [1], the system named is E0771 tumor. As to the kind of experiment: E0771 tumor growth in mice (incl. shRNA sublines, cell depletion). Format: in vivo. On the procedure: FIGS. 3A-D show the therapeutic effects of echinomycin on tumor growth in immunodeficient and immunocompetent mice. FIG. 3A. Experimental design. Three murine tumor lines were tested: 4T1, E0771, or MC38. For each, immunodeficient and immunocompetent mice were inoculated (day 0), and treatment was initiated with control liposomes (vehicle) or echinomycin liposomes (LEM) on day 6, indicated by arrows in FIGS. 3B-3D. The kinetics of tumor growth were compared to deduce the role of adaptive immunity in the therapeutic effects of echinomycin. FIG. 3B. 4T1 cells (1×10^6) were transplanted into mammary fat pad of NSG and BALB/c mice, which received vehicle or echinomycin (0.15 mg/kg) (arrows). Mean tumor volumes±SEM are shown for one of two independent experiments (n=10/group). FIG. 3C. Kinetics of E0771 tumor growth. E0771 cells (0.7×10^6) were transplanted into mammary fat pad of NSG and C57BL/6 mice, which received vehicle or echinomycin (0.25 mg/kg) (arrows). Mean tumor volumes±SEM are shown for one of two independent experiments (n=5/group). FIG. 3D. Kinetics of MC38 tumor growth. MC38 cells (1×10^6) were transplanted subcutaneously into NSG and C57BL/6 mice, which received vehicle or echinomycin (0.15 mg/kg) (blue arrows). Mean tumor volumes±SEM are shown for one of two independent experiments (n=5/group).
FIGS. 4A-D show the effects of pharmacological and/or genetic targeting of HIF-1α on E0771 tumor growth in immunodeficient or immunocompetent mice. FIG. 4A. Experimental design. Three sublines of E0771 were generated by lentiviral transduction: scrambled shRNA (sh^−Scr), or shRNA for the Hif1α (sh^−Hif1α) or Pdl1 (sh^−Pdl1) genes. For each subline, 0.5×10^6 cells were orthotopically transplanted into NSG or C57BL/6 mice (day 0), which received vehicle or echinomycin (0.25 mg/kg) starting day 6. FIG. 4B. Effects of Hif1α or Pdl1 knockdown on E0771 growth among immunodeficient or immunocompetent recipients. FIG. 4C. Effects of vehicle or echinomycin on sh^−Scr, sh^−Hif1α, or sh^−Pdl1 E0771 growth in immunocompetent C57BL/6 recipients. FIG. 4D. Effects of vehicle or echinomycin (arrows) on sh^−Scr, sh^−Hif1α, or sh^−Pdl1 E0771 growth in immunodeficient NSG recipients. Data shown are means+/−SEM (n=5/group) and are representative of 2 experiments.
FIGS. 5A-D show at echinomycin potentiates the therapeutic effect of anti-CTLA-4 antibody. FIG. 5A. Experimental design. In 4T1, E0771, or MC38 syngeneic tumor models, the effects of echinomycin on tumor growth were tested in combination with anti-CTLA-4 therapy (9D9). Tumor growth kinetics in mice receiving vehicle, echinomycin, and anti-CTLA-4 (9D9) monotherapies, or anti-CTLA-4+anti-PD-1 (9D9+RMP1-14) are shown. Starting on day 6 after tumor cell inoculation, mice received vehicle or echinomycin and/or various mAbs. The mean tumor volumes±SEM are shown for each group. FIG. 5B. Effects of 9D9+echinomycin on 4T1 tumor growth. BALB/c mice received vehicle, liposomal echinomycin (LEM, 0.15 mg/kg) (blue arrows), 9D9 (0.2 mg/mouse/injection) (red arrows), or both (n=10/group). Data shown for one of three independent experiments. FIG. 5C. Effects of 9D9+echinomycin on syngeneic E0771 growth. E0771 cells (0.5×10^6) were orthotopically transplanted into the mammary fat pads of C57BL/6 mice. Mice received vehicle or echinomycin (0.25 mg/kg) and/or various mAbs (0.2 mg/mouse/injection) (red arrows). Representative data shown for one of three independent experiments (n=5/group). FIG. 5D. […]

Data set [2] concerns irAE target organs (liver, kidney), spleen. As to the kind of experiment: PD-L1 expression and T cell infiltration in normal tissues (liver, kidney, spleen) of E0771 tumor-bearing mice. Format: in vivo, C57BL/6 mice. The method, then:
E0771 cells (0.5×10^6) were orthotopically transplanted into C57BL/6 mice (day 0), which were divided into 6 treatment groups: vehicle, echinomycin (LEM), anti-CTLA-4 (9D9), 9D9+echinomycin, 9D9+echinomycin+XMG1.2 (an anti-IFNγ antibody), or 9D9+RMP1-14. Echinomycin (0.25 mg/kg) or mAbs (0.2 mg/mouse/injection) were given on days 6, 8, 10, and 12. On day 14, the mice were euthanized, perfused, and the spleens were dissociated and analyzed by flow cytometry, or stimulated for 4 hours with PMA+ionomycin+GolgiStop prior to intracellular staining for IFNγ. The liver and kidney were processed for immunofluorescence analysis for PD-L1. FIG. 7A. PD-L1 expression in the tumor-bearing mice treated with different therapies. Representative immunofluorescence images shown for kidney (upper) and liver tissues (lower) of mice from indicated treatment groups stained by anti-PD-L1 and DAPI. FIGS. 7B-D. T cell infiltration in the liver and kidney of tumor-bearing mice. Representative immunofluorescence images from mice in the indicated treatment groups after staining with anti-CD3 and DAPI are shown in FIG. 7B for kidney (upper panel) and liver tissues (lower panel). T cell infiltration scores in the kidney (FIG. 7C) and liver (FIG. 7D) are shown as mean±SEM infiltration scores for the kidney (FIG. 7C) and liver tissues (FIG. 7D). T cell infiltration scoring range: 0, normal/none; 1, minimal; 2, mild; 3, moderate; 4, severe. FIG. 7E. Frequency of splenic Tc1 cells among CD8^+ T cells (gated on Singlets/Live_CD45^+/CD3^+/CD8^+CD4^−), expressed as the mean±SEM. FIG. 7F. Frequencies of splenic Th1 cells among CD4^+ T cells (gated on Singlets/Live_CD45^+/CD3^+/CD8^−CD4^+), expressed as the mean±SEM. FIG. 7G. Frequency of splenic T cells (gated on Singlets/Live_CD45^+/CD3^+/CD8^+CD4^−) among total hematopoietic cells (gated on Singlets/Live_CD45^+). Representative data are shown for one of at least two independent experiments. FIG. 7H. CD3 and cleaved-caspase 3 staining in kidney and liver. Representative immunofluorescence images shown for kidney (upper) and liver tissues (lower) of mice that received 9D9 or 9D9+LEM. Caspase 3 positive cells are indicated with arrows. All data is representative of at least two independent experiments. In FIGS. 7C-G, data are presented as the mean±SEM with each dot representing an individual mouse, analyzed by one-way ANOVA with Sidak's posttest.

For `CSC1SC[C@H]2C(=O)N(C)[C@@H](C(C)C)C(=O)OC[C@@H](NC(=O)c3cnc4ccccc4n3)C(=O)N[C@@H](C)C(=O)N(C)[C@@H]1C(=O)N(C)[C@@H](C(C)C)C(=O)OC[C@@H](NC(=O)c1cnc3ccccc3n1)C(=O)N[C@@H](C)C(=O)N2C` (stereo in doubt) [echinomycin, N,N′-(2,4,12,15,17,25-hexamethyl-11,24-bis(1-methylethyl)-27-(methylthio)-3,6,10,13,16,19,23,26-octaoxo-9,22-dioxa-28-thia-2,5,12,15,18,25-hexaazabicyclo(12.12.3)nonacosane-7,20-diyl)bis(2-quinoxalinecarboxamide)], the “E0771 tumor growth, combination study” value in data set [1] (C57BL/6, echinomycin 0.25 mg/kg, mAbs 0.2 mg/mouse/injection, vs vehicle) is reported as “significant inhibition of tumor growth”. Moreover, the “sh-Scr E0771 tumor growth” value in data set [1] (C57BL/6 compared to NSG recipients, echinomycin 0.25 mg/kg) is on record as “more effectively inhibited”. Further, in data set [1] (C57BL/6 or NSG recipients, echinomycin 0.25 mg/kg), the “sh-Pdl1 E0771 tumor growth” value was “did not further suppress”. In data set [1] (immunocompetent C57BL/6, echinomycin 0.25 mg/kg), the E0771 tumor growth result is listed as “therapeutic effect on immune competent”. The “sh-Hif1α E0771 tumor growth” value in data set [1] (regardless of recipient strain (C57BL/6, NSG), echinomycin 0.25 mg/kg) was “did not inhibit”. Also, the “T cell infiltration in liver and kidney” value in data set [2] (E0771 tumor-bearing C57BL/6, anti-CD3 immunofluorescence) is reported as “did not stimulate increased infiltration”. The “PD-L1 expression in liver and kidney (immunofluorescence)” value in data set [2] (E0771 tumor-bearing C57BL/6, echinomycin 0.25 mg/kg, mAbs 0.2 mg/mouse/injection) is given as “also induced PD-L1”. Also, the “PD-L1 expression in normal tissues including liver, kidney, salivary gland and colon” value in data set [2] (immunocompetent mice) was “induced PD-L1 expression”. Besides, the “PD-L1 induction in the liver in mice with conditional knockout of Hif1α in T cells” value in data set [2] (mouse, in vivo) was “preserved regardless of the mouse genotype”.

The record behind these values is patent publication US20240139280A1, “USE OF HIF-1-ALPHA INHIBITORS IN CANCER IMMUNOTHERAPY” (ONCOC4, INC., priority 2021, published 2024).
